Data on 23 compounds can be found in patent US9938273B2 (Plexxikon Inc., priority 2015, dated 2018).

The IC50 is the point on the concentration scale where inhibition reaches its midpoint.

Structures are written as SMILES.

The target in the assay is T1, FLT3-D835Y (Homo sapiens, UniProt P36888, D835Y).
T1 construct: purchased Invitrogen PV3967
T1 sequence (P36888 27-993 D835Y): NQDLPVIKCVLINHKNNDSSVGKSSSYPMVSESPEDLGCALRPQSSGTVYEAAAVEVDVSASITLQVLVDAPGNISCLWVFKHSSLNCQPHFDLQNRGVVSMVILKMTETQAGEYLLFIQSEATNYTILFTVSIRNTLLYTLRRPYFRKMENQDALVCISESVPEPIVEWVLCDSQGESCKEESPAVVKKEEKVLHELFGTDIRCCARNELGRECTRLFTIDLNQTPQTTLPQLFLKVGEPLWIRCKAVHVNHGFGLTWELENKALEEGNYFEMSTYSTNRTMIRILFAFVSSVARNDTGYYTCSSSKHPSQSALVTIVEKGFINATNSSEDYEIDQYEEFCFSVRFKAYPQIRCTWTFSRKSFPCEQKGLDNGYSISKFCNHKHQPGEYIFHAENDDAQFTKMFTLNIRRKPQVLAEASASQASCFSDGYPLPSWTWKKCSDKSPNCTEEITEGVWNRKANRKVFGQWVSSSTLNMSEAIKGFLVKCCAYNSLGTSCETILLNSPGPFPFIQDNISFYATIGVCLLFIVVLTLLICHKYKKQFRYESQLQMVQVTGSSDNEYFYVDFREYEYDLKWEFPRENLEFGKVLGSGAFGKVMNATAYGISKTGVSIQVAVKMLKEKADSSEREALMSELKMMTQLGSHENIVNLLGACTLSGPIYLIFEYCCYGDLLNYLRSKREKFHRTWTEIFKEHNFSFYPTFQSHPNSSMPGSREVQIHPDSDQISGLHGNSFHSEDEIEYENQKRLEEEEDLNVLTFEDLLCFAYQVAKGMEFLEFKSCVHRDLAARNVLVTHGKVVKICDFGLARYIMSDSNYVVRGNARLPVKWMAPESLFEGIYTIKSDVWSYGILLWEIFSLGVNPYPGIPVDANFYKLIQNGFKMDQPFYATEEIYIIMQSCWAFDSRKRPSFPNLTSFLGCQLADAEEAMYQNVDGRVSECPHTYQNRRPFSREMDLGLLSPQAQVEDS
The assay can be described thus: AlphaScreen kinase assay with recombinant enzyme, FLT3-D835Y. In kind it is biochemical. As to conditions: 8pt, GMean. The procedure:
In order to determine the effect of compounds on FLT3 catalytic activity, kinase assays using recombinant enzymes and AlphaScreen® technology have been established. The catalytic activity of c-kit activity was also measured to determine selectivity of the compounds. When the kinases are catalytically active, they phosphorylate a biotinylated peptide substrate on tyrosine residues. Using AlphaScreen® technology, the ability of the compounds to affect the catalytic activity of the kinases can be measured quantitatively. The peptide substrate is immobilized by the AlphaScreen® Streptavidin Donor beads and, upon phosphorylation by a tyrosine kinase, can bind to AlphaScreen® Anti-Phosphotyrosine (PY20) Acceptor beads. Upon excitation of these beads with laser light at 680 nm, singlet oxygen is produced. This singlet oxygen is rapidly quenched, unless the AlphaScreen® Anti-Phosphotyrosine (PY20) Acceptor beads are in close proximity, in which case a proximity signal can be measured at 580 nm. In the presence of catalytic activity, there is a very strong proximity signal. Selective kinase inhibitors affect a decrease in this proximity signal through a decrease in tyrosine phosphorylation of the peptide substrate.
The assay was performed as summarized below.
Poly (Glu4-Tyr) Peptide, biotin conjugate [Biotin-GG(EEEEY)10EE] (SEQ ID NO: 4)
Final concentration=30 nM
Final concentration for IC50 determination=10 μM (FLT3-D835Y or FLT3-ITD) or 100 μM (c-KIT)
AlphaScreen® Phosphotyrosine (PY20) Assay Kit
Final concentration=10 μg/mL
Dilute compounds in DMSO to 20× final concentration.
Add 1 μl of compound to each well of 384 well reaction plate (Perkin Elmer #6005359).
Mix enzyme and Poly (Glu4-Tyr) Peptide substrate at 1.33× final concentration in assay buffer.
Mix ATP at 5× final concentration in assay buffer.
Add 15 μL enzyme/substrate mixture to the reaction plate.
Add 4 μL of ATP to the reaction plate.
Mix Streptavidin Donor beads at 6× final concentration in Stop/Detection buffer.
Add 5 μL Streptavidin Donor beads to the reaction plate. Centrifuge 1 minute, shake to mix, and incubate at room temperature for 20 minutes.
Mix Anti-Phosphotyrosine (PY20) Acceptor beads at 6× final concentration in Stop/Detection buffer.
Add 5 μL Anti-Phosphotyrosine (PY20) beads to the reaction plate.
Centrifuge 1 minute, shake to mix, and incubate at room temperature for 60 minutes.
Read plate on Wallac EnVision™ 2103 Multilabel Reader.
In general terms: Alpha assays give light when donor and acceptor beads are brought close together.
In the case of `O=C(c1cccc(-c2cnc3[nH]c(-c4ccccc4)cc3c2)n1)N1CCC(F)(F)C1` [Compound P-0093, (3,3-difluoropyrrolidin-1-yl)-[6-(2-phenyl-1H-pyrrolo[2,3-b]pyridin-5-yl)-2-pyridyl]methanone], the IC50 fell in the range of 0.0001 to 10 µM.

`COC1CCN(C(=O)c2cccc(-c3cnc4[nH]c(-c5ccccc5)cc4c3)n2)C1` (centres unmarked) [Compound P-0095, (3-methoxypyrrolidin-1-yl)-[6-(2-phenyl-1H-pyrrolo[2,3-b]pyridin-5-yl)-2-pyridyl]methanone]: the IC50 lay within 0.0001 to 10 µM.

Consider `CNC(=O)C1CCN(C(=O)c2cccc(-c3cnc4[nH]c(-c5ccccc5)cc4c3)n2)C1` (centres unmarked) [Compound P-0096, N-methyl-1-[6-(2-phenyl-1H-pyrrolo[2,3-b]pyridin-5-yl)pyridine-2-carbonyl]pyrrolidine-3-carboxamide], for which the IC50 is 0.0001 to 10 µM. With `O=C(c1cccc(-c2cnc3[nH]c(-c4ccccc4)cc3c2)n1)N1CCC(n2ccnc2)C1` (centres unmarked) [Compound P-0097, (3-imidazol-1-ylpyrrolidin-1-yl)-[6-(2-phenyl-1H-pyrrolo[2,3-b]pyridin-5-yl)-2-pyridyl]methanone], the IC50 fell in the range of 0.0001 to 10 µM. With `N#CCCNC(=O)c1cccc(-c2cnc3[nH]c(-c4ccccc4)cc3c2)n1` [Compound P-0099, N-(2-cyanoethyl)-6-(2-phenyl-1H-pyrrolo[2,3-b]pyridin-5-yl)pyridine-2-carboxamide], the IC50 fell in the range of 0.0001 to 10 µM.

Consider `CC(C)(C#N)CNC(=O)c1cccc(-c2cnc3[nH]c(-c4ccccc4)cc3c2)n1` [Compound P-0100, N-(2-cyano-2-methyl-propyl)-6-(2-phenyl-1H-pyrrolo[2,3-b]pyridin-5-yl)pyridine-2-carboxamide], for which the IC50 lay in the range of 0.0001 to 10 µM. With `N#CC1CCN(C(=O)c2cccc(-c3cnc4[nH]c(-c5ccccc5)cc4c3)n2)C1` (centres unmarked) [Compound P-0105, 1-[6-(2-phenyl-1H-pyrrolo[2,3-b]pyridin-5-yl)pyridine-2-carbonyl]pyrrolidine-3-carbonitrile], the IC50 was 0.0001 to 10 µM. With `CS(=O)(=O)N1CCC(NS(=O)(=O)c2cccc(-c3cnc4[nH]c(-c5ccccc5)cc4c3)n2)C1` (centres unmarked) [Compound P-0107, N-(1-methylsulfonylpyrrolidin-3-yl)-6-(2-phenyl-1H-pyrrolo[2,3-b]pyridin-5-yl)pyridine-2-sulfonamide], the 50% inhibitory concentration (IC50) was in the range of 0.0001 to 10 µM. Take `N#C[C@H]1CCN(C(=O)c2cccc(-c3cnc4[nH]c(-c5ccccc5)cc4c3)n2)C1` [Compound P-0117, (3S)-1-[6-(2-phenyl-1H-pyrrolo[2,3-b]pyridin-5-yl)pyridine-2-carbonyl]pyrrolidine-3-carbonitrile]: the IC50 fell in the range of 0.0001 to 10 µM. As for `CN(CCC#N)C(=O)c1cccc(-c2cnc3[nH]c(-c4ccccc4)cc3c2)n1` [Compound P-0119, N-(2-cyanoethyl)-N-methyl-6-(2-phenyl-1H-pyrrolo[2,3-b]pyridin-5-yl)pyridine-2-carboxamide], the IC50 is 0.0001 to 10 µM. For `N#CC1CCN(C(=O)c2cccc(-c3cnc4[nH]c(C5=CCCCC5)cc4c3)n2)C1` (centres unmarked) [Compound P-0120, 1-[6-[2-(cyclohexen-1-yl)-1H-pyrrolo[2,3-b]pyridin-5-yl]pyridine-2-carbonyl]pyrrolidine-3-carbonitrile], the half-maximal inhibitory concentration (IC50) was in the range of 0.0001 to 10 µM. As to `N#CC1CCN(S(=O)(=O)c2cccc(-c3cnc4[nH]c(-c5ccccc5)cc4c3)n2)C1` (centres unmarked) [Compound P-0121, 1-[[6-(2-phenyl-1H-pyrrolo[2,3-b]pyridin-5-yl)-2-pyridyl]sulfonyl]pyrrolidine-3-carbonitrile], the IC50 lay within 0.0001 to 10 µM. On to `N#CCCNC(=O)c1cccc(-c2cnc3[nH]c(-c4ccccc4)c(Cl)c3c2)n1` [Compound P-0125, 6-(3-chloro-2-phenyl-1H-pyrrolo[2,3-b]pyridin-5-yl)-N-(2-cyanoethyl)pyridine-2-carboxamide], for which the 50% inhibitory concentration (IC50) was in the range of 0.0001 to 10 µM. For `CC(C)(C#N)CNC(=O)c1cccc(-c2cnc3[nH]c(-c4ccccc4)c(Br)c3c2)n1` [Compound P-0126, 6-(3-bromo-2-phenyl-1H-pyrrolo[2,3-b]pyridin-5-yl)-N-(2-cyano-2-methyl-propyl)pyridine-2-carboxamide], the IC50 was 0.0001 to 10 µM. For the compound `CC(C)(C#N)CNC(=O)c1cccc(-c2cnc3[nH]c(-c4ccccc4)c(I)c3c2)n1` [Compound P-0127, N-(2-cyano-2-methyl-propyl)-6-(3-iodo-2-phenyl-1H-pyrrolo[2,3-b]pyridin-5-yl)pyridine-2-carboxamide], the IC50 fell in the range of 0.0001 to 10 µM. Take `Cc1cc(C#N)ccc1-c1cc2cc(-c3cccc(C(=O)N4CCC(C#N)C4)n3)cnc2[nH]1` (centres unmarked) [Compound P-0130, 1-[6-[2-(4-cyano-2-methyl-phenyl)-1H-pyrrolo[2,3-b]pyridin-5-yl]pyridine-2-carbonyl]pyrrolidine-3-carbonitrile]: the half-inhibitory concentration (IC50) was in the range of 0.0001 to 10 µM. Consider `N#Cc1cccc(-c2cc3cc(-c4cccc(C(=O)N5CCC(C#N)C5)n4)cnc3[nH]2)c1` (centres unmarked) [Compound P-0133, 1-[6-[2-(3-cyanophenyl)-1H-pyrrolo[2,3-b]pyridin-5-yl]pyridine-2-carbonyl]pyrrolidine-3-carbonitrile], for which the IC50 was 0.0001 to 10 µM.

On to `CC(C)(C)OC(=O)N1CC=C(c2cc3cc(-c4cccc(C(=O)N5CCC(C#N)C5)n4)cnc3[nH]2)C1` (centres unmarked) [Compound P-0135, tert-butyl 3-[5-[6-(3-cyanopyrrolidine-1-carbonyl)-2-pyridyl]-1H-pyrrolo[2,3-b]pyridin-2-yl]-2,5-dihydropyrrole-1-carboxylate], for which the IC50 lay in the range of 0.0001 to 10 µM. In the case of `N#CC1(NC(=O)c2cccc(-c3cnc4[nH]c(-c5ccccc5)c(Cl)c4c3)n2)CC1` [Compound P-0139, 6-(3-chloro-2-phenyl-1H-pyrrolo[2,3-b]pyridin-5-yl)-N-(1-cyanocyclopropyl)pyridine-2-carboxamide] it was 0.0001 to 10 µM; in that of `N#CC1CCN(C(=O)c2cccc(-c3cnc4[nH]c(C5=CCOCC5)c(Cl)c4c3)n2)C1` (centres unmarked) [Compound P-0142, 1-[6-[3-chloro-2-(3,6-dihydro-2H-pyran-4-yl)-1H-pyrrolo[2,3-b]pyridin-5-yl]pyridine-2-carbonyl]pyrrolidine-3-carbonitrile], 0.0001 to 10 µM. For `N#CCCNC(=O)c1cccc(-c2cnc3[nH]c(-c4ccccc4)c(I)c3c2)n1` [Compound P-0143, N-(2-cyanoethyl)-6-(3-iodo-2-phenyl-1H-pyrrolo[2,3-b]pyridin-5-yl)pyridine-2-carboxamide], the IC50 is 0.0001 to 10 µM.

For `N#CC1(CNC(=O)c2cccc(-c3cnc4[nH]c(-c5ccccc5)c(Cl)c4c3)n2)CC1` [Compound P-0148, 6-(3-chloro-2-phenyl-1H-pyrrolo[2,3-b]pyridin-5-yl)-N-[(1-cyanocyclopropyl)methyl]pyridine-2-carboxamide], the half-inhibitory concentration (IC50) fell in the range of 0.0001 to 10 µM.

On to `O=C(NC1(C(F)(F)F)CCCC1)c1cccc(-c2cnc3[nH]c(-c4ccccc4)cc3c2)n1` [Compound P-0149, 6-(2-phenyl1H-pyrrolo[2,3-b]pyridin-5-yl)-N-[1-(trifluoromethyl)cyclopentyl]pyridine-2-carboxamide], for which the IC50 is 0.0001 to 10 µM.
